Reference: PMC2481421, “Gene expression response in target organ and whole blood varies as a function of target organ injury phenotype” (Genome Biology, 2008)
Where “and” joins values, the source holds several entries; their conditions need not be identical. Identical values can stand only once. Entries after “also recorded” stand apart in the source; their conditions may differ.

What was measured:
[1] = test system: liver; test: Liver histopathology (H&E sections of left liver lobe, severity graded) after a single dose; settings: for Primary site of livery injury: rat, single administration
[2] = In-life observations: body weight, gross findings before and at necropsy; assay type: in vivo, Male Fischer 344/N rats; settings: individual animals
Protocol: Doses were determined with pilot experiments. […] Serum was collected for clinical chemistry.

[3] = I.P., PBS vehicle, 25 mg/kg, 48 hours
[4] = I.P., PBS vehicle, 100 mg/kg, 48 hours
[5] = I.P., PBS vehicle, 400 mg/kg, 48 hours
[6] = Gavage, corn oil, 10 mg/kg, 6 hours
[7] = Gavage, corn oil, 10 mg/kg, 24 hours
[8] = Gavage, corn oil, 10 mg/kg, 48 hours
[9] = Gavage, corn oil, 30 mg/kg, 24 hours
[10] = Gavage, corn oil, 50 mg/kg, 6 hours
[11] = Gavage, corn oil, 50 mg/kg, 24 hours
[12] = Gavage, corn oil, 50 mg/kg, 48 hours
[13] = Gavage, corn oil, 300 mg/kg, 6 hours
[14] = Gavage, corn oil, 300 mg/kg, 24 hours
[15] = Gavage, corn oil, 300 mg/kg, 48 hours

## N[C@H]1C(O)O[C@H](CO)[C@H](O)[C@@H]1O (some centres unmarked) [Galactosamine]
[1]; 48 hours
  biliary hyperplasia: evoked biliary hyperplasia
[1]; high dose, 48 hour
  extent of hepatocellular necrosis, amount of inflammatory cell infiltrates and/or indications of hepatocellular repair (mitosis) across animals: variability
[1]
  Primary site of livery injury: Random
[2]; 25 mg/kg, I.P., PBS, 6 hours
  Clin/Ob Prior to Necropsy: Normal
  Gross Findings: No Gross Findings; also recorded: Liver left lobe mottled, median lobe mottled with dark edges
[2]; 25 mg/kg, I.P., PBS, 24 hours
  Clin/Ob Prior to Necropsy: Normal
  Final Body Wt.: 288.30 g and 287.60 g and 307.80 g and 298.50 g
  Gross Findings: No Gross Findings
[2]; 25 mg/kg, I.P., PBS, 48 hours
  Clin/Ob Prior to Necropsy: Normal
  Final Body Wt.: 291.10 g and 291.80 g and 294.20 g
  Gross Findings: No Gross Findings
[2]; 100 mg/kg, I.P., PBS, 6 hours
  Clin/Ob Prior to Necropsy: Normal
  Gross Findings: Liver left lobe mottled, median lobe mottled with dark edges; also recorded: No Gross Findings
[2]; 100 mg/kg, I.P., PBS, 24 hours
  Clin/Ob Prior to Necropsy: Normal
  Final Body Wt.: 270.10 g and 280.10 g and 305.10 g and 290.70 g
  Gross Findings: No Gross Findings; also recorded: Liver median lobe mottled
[2]; 400 mg/kg, I.P., PBS, 6 hours
  Clin/Ob Prior to Necropsy: Normal
  Gross Findings: No Gross Findings; also recorded: Liver left lobe mottled, median lobe mottled with dark edges
[2]; 400 mg/kg, I.P., PBS, 24 hours
  Clin/Ob Prior to Necropsy: Normal
  Final Body Wt.: 270.50 g and 268.20 g and 301.80 g and 280.20 g
  Gross Findings: Liver left lobe with dark edges, median lobe mottled; also recorded: Liver left lobe mottled with dark edges, median lobe mottled; also recorded: No Gross Findings; also recorded: Liver left and median lobes dark and mottled
[2]; [3]
  Clin/Ob Prior to Necropsy: Normal
  Final Body Wt.: 287.20 g
  Gross Findings: No Gross Findings
[2]; [4]
  Clin/Ob Prior to Necropsy: Normal
  Final Body Wt.: 284.20 g and 284.00 g and 295.90 g and 294.00 g
  Gross Findings: No Gross Findings
[2]; [5]
  Clin/Ob Prior to Necropsy: Piloerection, Decreased muscle tone; also recorded: Normal
  Final Body Wt.: 263.20 g and 263.40 g and 260.90 g and 265.30 g
  Gross Findings: Liver left and median lobes pale with mildly rough surface and dark edges; also recorded: Liver left lobe firm and pale with minimally rough surface and dark edges, median lobe firm, pale, and mottled with minimally rough surface; also recorded: Liver left lobe pale, mottled, and firm; median lobe pale with dark areas and firm

## C[C@H]1C(=O)O[C@@H]2CCN3CC=C(COC(=O)[C@](C)(O)[C@]1(C)O)[C@H]23 [Monocrotaline]
[1]
  Primary site of livery injury: Centrilobular
[2]; [6]
  Clin/Ob Prior to Necropsy: normal
  Gross Findings: No Gross Findings
[2]; [7]
  Clin/Ob Prior to Necropsy: normal
  Final Body Wt.: 224.70 g and 231.10 g and 243.30 g and 240.90 g
  Gross Findings: No Gross Findings; also recorded: Liver - Herniated diaphragmatic nodule
[2]; [8]
  Clin/Ob Prior to Necropsy: normal
  Final Body Wt.: 241.60 g and 239.40 g and 266.80 g and 243.40 g
  Gross Findings: Liver median lobe dark area 1x1x1 mm; also recorded: Liver median lobe red area 2x2x2 mm; also recorded: No Gross Findings; also recorded: Liver median lobe right side with red area 2x1x1 mm
[2]; [9]
  Clin/Ob Prior to Necropsy: Piloerection
  Final Body Wt.: 224.70 g and 224.00 g and 229.60 g and 222.60 g
  Gross Findings: Liver left lobe dark and mottled with rough surface, median lobe dark and mottled; also recorded: Liver left and median lobes dark; also recorded: Liver left lobe dark and mottled, median lobe dark; kidney dark
[2]; [10]
  Clin/Ob Prior to Necropsy: normal
  Gross Findings: No Gross Findings
[2]; [11]
  Clin/Ob Prior to Necropsy: normal
  Final Body Wt.: 223.50 g and 226.80 g and 245.00 g and 241.70 g
  Gross Findings: Liver left lobe mottled, median lobe mottled with minimal roughening of surface; also recorded: No Gross Findings; also recorded: Liver median lobe with dark area 2x2x2 mm
[2]; [12]
  Clin/Ob Prior to Necropsy: normal
  Final Body Wt.: 231.90 g and 232.10 g and 240.80 g and 232.90 g
  Gross Findings: Liver left lobe with red area 10x2x2 mm, median lobe dark and mottled; also recorded: Liver left lobe firm, median lobe left side, ventral surface dark, dorsal surface with red area 2x2x2 mm, right side mottled and firm; also recorded: Liver median lobe right and left side with dark lower edges, dorsal surface mottled; also recorded: Liver median lobe with dark edges, right side dark and mottled, dorsal surface dark and mottled with mild roughening of surface
[2]; [13]
  Clin/Ob Prior to Necropsy: normal
  Gross Findings: No Gross Findings; also recorded: Liver, median lobe tan; also recorded: Liver, left lobe mottled, median lobe dark on edges, patchy 2x2x3 mm; also recorded: Liver left and median lobes mottled

## O=NN1CCOCC1 [N-nitrosomorpholine]
[1]
  Primary site of livery injury: Centrilobular
[2]; [6]
  Clin/Ob Prior to Necropsy: Normal
  Gross Findings: No Gross Findings
[2]; [7]
  Clin/Ob Prior to Necropsy: Normal
  Final Body Wt.: 226.20 g and 225.80 g and 258.80 g and 254.30 g
  Gross Findings: No Gross Findings
[2]; [8]
  Clin/Ob Prior to Necropsy: Normal
  Final Body Wt.: 238.00 g and 238.70 g and 249.90 g
  Gross Findings: No Gross Findings
[2]; [10]
  Clin/Ob Prior to Necropsy: Normal
  Gross Findings: No Gross Findings
[2]; [11]
  Clin/Ob Prior to Necropsy: Normal; also recorded: Corneal Opacity, right eye (pre-dose)
  Final Body Wt.: 225.10 g and 189.30 g and 237.50 g and 242.10 g
  Gross Findings: Liver posterior aspect of left lobe with dark focus (1x1 mm); also recorded: Liver left and median lobes with minimal roughening of surfaces; also recorded: Liver left and median lobes pale; also recorded: Liver left lobe pale and firm, median lobe firm with minimal roughening of surface
[2]; [12]
  Clin/Ob Prior to Necropsy: Normal
  Final Body Wt.: 229.00 g and 222.00 g and 233.70 g and 237.20 g
  Gross Findings: Liver left and median lobes with mild roughening of surfaces; also recorded: Liver left and median lobes firm with minimal roughening of surfaces; also recorded: No Gross Findings
[2]; [13]
  Clin/Ob Prior to Necropsy: Normal; also recorded: Corneal Opacity, right eye (pre-dose)
  Gross Findings: No Gross Findings
[2]; [14]
  Clin/Ob Prior to Necropsy: Normal
  Final Body Wt.: 213.90 g and 207.30 g and 219.00 g and 228.80 g
  Gross Findings: Liver left lobe mottled with minimal roughening of surface, median lobe with minimal roughening of surface; also recorded: Liver left lobe with minimal roughening of surface, median lobe mottled with minimal roughening of surface; also recorded: Liver left and median lobes with firm with mild roughening of surfaces
[2]; [15]
  Clin/Ob Prior to Necropsy: Ungroomed Appearance
  Final Body Wt.: 205.40 g and 202.50 g and 201.50 g and 203.90 g
  Gross Findings: Liver left and median lobes dark with mild roughening of surfaces; median lobe with prominent centrilobular pattern; also recorded: Liver left and median lobes dark with mild roughening of surfaces; median lobe with fibrin on surface; also recorded: Liver left and median lobes firm and dark with mild roughening of surfaces
